Results taken from article PMC3759966 (The Biochemical journal, 2009).

What was measured:
[1] = target: T1, GST–LRRK2[G2019S]-(1326–2527) (Homo sapiens, UniProt Q5S007, G2019S); assay: Peptide kinase assay with inhibitors; format: biochemical; settings: for inhibition of LRRK2[G2019S] (in words): 100 μM ATP
T1 sequence (Q5S007 1326-2527 G2019S): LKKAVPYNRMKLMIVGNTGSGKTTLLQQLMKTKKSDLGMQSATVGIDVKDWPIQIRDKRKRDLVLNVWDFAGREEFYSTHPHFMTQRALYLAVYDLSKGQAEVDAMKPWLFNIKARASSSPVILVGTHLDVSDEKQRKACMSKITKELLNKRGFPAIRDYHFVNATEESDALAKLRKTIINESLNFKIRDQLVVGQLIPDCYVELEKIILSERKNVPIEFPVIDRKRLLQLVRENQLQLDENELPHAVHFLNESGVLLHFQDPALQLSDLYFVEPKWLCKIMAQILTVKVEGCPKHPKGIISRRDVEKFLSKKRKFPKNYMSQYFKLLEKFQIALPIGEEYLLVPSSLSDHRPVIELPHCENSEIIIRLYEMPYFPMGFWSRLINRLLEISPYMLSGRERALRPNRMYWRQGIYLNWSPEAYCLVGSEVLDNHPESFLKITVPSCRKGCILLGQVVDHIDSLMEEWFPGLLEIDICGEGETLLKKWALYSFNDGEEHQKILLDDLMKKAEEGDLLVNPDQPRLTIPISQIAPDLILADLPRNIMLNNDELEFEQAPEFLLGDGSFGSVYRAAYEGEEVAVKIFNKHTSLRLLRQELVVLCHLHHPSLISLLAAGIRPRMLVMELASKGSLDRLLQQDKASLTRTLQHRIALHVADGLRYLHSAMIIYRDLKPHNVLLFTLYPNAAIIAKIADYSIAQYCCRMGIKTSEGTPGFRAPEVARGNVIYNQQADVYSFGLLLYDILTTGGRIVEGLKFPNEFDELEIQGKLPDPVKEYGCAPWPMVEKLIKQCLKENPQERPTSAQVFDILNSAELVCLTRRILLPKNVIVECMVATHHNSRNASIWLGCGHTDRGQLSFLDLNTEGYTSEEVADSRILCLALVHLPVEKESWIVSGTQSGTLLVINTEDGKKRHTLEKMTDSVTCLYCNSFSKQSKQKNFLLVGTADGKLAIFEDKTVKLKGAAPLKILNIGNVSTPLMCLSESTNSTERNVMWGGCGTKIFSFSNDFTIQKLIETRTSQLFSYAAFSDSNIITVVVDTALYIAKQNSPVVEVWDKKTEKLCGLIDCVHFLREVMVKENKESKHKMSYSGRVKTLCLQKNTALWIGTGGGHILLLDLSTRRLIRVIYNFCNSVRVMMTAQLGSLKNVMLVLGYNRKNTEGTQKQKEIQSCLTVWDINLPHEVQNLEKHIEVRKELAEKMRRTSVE

[2] = test system: phosphorylation of MYPT at Thr850; assay: MYPT Thr850 phosphorylation in HEK-293 cells; format: cell-based, human; settings: 10 μM, 1 h; HEK-293 cells with or without G14V-Rho
[3] = test system: ERM protein phosphorylation (site equivalent to Thr567 of ezrin); assay: ERM protein phosphorylation in HEK-293 cells; format: cell-based, human; settings: 10 μM, 1 h; in the presence or absence of G14V-Rho
[4] = target: endogenous LRRK2 from Swiss-3T3 cells (Mus musculus, UniProt Q5S006); assay: Kinase assay of immunoprecipitated endogenous LRRK2 with Nictide; format: biochemical; settings: Swiss-3T3 immunoprecipitates, Nictide substrate
[5] = test system: panel of 85 protein kinases; assay: Selectivity over kinase panel; format: biochemical; settings: 1 μM; out of the 85 kinases profiled

Chain of endogenous LRRK2 from Swiss-3T3 cells (Q5S006 whole entry): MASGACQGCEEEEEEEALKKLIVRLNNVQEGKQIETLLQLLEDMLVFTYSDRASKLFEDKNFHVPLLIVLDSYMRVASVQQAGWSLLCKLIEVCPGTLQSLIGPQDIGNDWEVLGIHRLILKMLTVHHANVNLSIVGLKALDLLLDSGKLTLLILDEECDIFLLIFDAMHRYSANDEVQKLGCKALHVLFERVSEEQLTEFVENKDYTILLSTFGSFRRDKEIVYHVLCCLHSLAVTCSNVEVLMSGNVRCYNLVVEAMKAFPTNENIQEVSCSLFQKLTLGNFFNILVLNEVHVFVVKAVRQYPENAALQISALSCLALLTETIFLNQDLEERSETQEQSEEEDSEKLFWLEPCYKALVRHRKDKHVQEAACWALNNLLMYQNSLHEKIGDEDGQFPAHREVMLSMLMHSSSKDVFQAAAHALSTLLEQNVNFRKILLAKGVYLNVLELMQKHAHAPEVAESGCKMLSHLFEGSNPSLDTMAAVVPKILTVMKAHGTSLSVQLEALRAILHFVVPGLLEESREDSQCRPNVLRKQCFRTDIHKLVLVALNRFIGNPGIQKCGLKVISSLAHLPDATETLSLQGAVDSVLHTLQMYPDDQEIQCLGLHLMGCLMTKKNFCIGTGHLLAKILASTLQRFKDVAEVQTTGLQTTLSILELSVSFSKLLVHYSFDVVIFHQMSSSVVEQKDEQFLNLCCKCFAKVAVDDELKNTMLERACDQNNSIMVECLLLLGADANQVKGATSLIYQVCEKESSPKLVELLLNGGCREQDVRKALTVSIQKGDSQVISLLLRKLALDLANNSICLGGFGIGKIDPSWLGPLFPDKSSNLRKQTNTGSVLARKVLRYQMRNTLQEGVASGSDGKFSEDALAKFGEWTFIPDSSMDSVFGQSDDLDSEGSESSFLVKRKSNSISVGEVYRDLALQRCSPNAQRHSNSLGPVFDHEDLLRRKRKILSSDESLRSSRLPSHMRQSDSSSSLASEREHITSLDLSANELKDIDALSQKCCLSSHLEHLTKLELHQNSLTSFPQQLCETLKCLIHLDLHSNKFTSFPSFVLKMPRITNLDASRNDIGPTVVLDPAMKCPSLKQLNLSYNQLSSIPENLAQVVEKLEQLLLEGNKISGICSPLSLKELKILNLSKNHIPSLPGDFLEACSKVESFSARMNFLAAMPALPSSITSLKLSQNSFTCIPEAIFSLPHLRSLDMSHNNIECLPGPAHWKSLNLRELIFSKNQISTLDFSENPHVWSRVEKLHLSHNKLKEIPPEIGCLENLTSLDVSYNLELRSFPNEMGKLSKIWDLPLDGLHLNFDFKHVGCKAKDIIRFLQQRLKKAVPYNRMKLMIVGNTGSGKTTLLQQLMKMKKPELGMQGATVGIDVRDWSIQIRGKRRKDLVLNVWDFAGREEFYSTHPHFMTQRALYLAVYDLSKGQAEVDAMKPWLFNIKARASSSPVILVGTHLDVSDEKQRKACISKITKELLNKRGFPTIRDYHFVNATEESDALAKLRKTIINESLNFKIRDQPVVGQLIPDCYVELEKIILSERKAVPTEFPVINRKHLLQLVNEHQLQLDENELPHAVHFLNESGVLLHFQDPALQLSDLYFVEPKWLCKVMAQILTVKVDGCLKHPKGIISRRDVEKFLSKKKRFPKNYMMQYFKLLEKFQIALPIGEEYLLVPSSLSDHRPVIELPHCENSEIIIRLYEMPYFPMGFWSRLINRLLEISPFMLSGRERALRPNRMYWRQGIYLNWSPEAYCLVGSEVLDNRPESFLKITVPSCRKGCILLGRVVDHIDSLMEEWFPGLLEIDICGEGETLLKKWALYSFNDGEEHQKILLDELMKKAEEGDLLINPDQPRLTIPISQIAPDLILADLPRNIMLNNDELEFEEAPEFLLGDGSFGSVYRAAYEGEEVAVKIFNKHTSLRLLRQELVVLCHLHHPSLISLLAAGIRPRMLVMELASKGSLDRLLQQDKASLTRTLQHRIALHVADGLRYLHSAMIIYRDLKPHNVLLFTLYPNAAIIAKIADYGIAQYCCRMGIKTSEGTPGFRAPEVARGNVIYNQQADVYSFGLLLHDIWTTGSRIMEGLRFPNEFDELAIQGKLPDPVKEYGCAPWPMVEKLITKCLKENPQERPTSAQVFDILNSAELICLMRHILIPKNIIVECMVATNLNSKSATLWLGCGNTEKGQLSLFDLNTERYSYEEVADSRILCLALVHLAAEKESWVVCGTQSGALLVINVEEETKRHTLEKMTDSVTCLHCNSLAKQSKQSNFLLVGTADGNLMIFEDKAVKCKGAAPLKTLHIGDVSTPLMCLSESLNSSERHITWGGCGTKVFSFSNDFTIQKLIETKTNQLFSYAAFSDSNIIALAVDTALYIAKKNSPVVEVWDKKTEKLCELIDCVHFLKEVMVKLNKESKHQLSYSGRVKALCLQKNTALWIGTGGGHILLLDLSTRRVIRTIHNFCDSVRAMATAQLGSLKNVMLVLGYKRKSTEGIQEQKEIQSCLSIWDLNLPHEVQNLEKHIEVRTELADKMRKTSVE

Compound | inhibition of LRRK2[G2019S] (in words) [1] | inhibition of LRRK2 at high dose (in words) ([1]; doses as high as 30 μM) | effect on phosphorylation of MYPT at Thr850 [2] | effect on ERM protein phosphorylation [3] | effect on protein kinase activity in LRRK2 immunoprecipitate [4] | number of kinases significantly inhibited [5]
O=S(=O)(NCCNCC=Cc1ccc(Br)cc1)c1cccc2cnccc12 [H-89, N-[2-(p-bromocinnamylamino)ethyl]-5-isoquinolinesulfonamide] | weakly | – | – | – | – | –
CC1=C(C(=O)Nc2cc3cn[nH]c3cc2F)C(c2ccc(C(F)(F)F)cc2)CC(=O)N1 (stereo not shown) [GSK429286A] | – | does not significantly inhibit | ablated phosphorylation | did not inhibit | – | –
C[C@@H](N)[C@H]1CC[C@H](C(=O)Nc2ccncc2)CC1 [Y-27632] | – | – | ablated phosphorylation | did not inhibit | – | –
Cc1cncc2cccc(S(=O)(=O)N3CCCNC[C@@H]3C)c12 [H-1152, (S)-(+)-2-methyl-1-[(4-methyl-5-isoquinoline)sulfonyl]-homopiperazine] | – | – | ablated phosphorylation | did not inhibit | suppressed | –
O=S(=O)(c1cccc2cnccc12)N1CCCNCC1 [HA-1077, fasudil] | weakly | – | – | – | – | –
CCn1c(-c2nonc2N)nc2cnc(Oc3cccc(NC(=O)c4ccc(OCCN5CCOCC5)cc4)c3)cc21 [GSK269962A] | – | – | ablated phosphorylation | did not inhibit | – | seven
